Columns and labels:
Influenza A/Texas/1/77 = assay: Lethal intranasal virus infection of mice, single dose of active substance, survival; type: in vivo, Mäuse
Experimental: (§1) Gruppen von 30, 40 oder 50 weiblichen MF-2f SPF-Mäusen mit einem Körpergewicht von 14-16 g bzw. 12-14 g bei den Versuchen mit Herpes simplex 1 Viren werden unter leichter Narkose mit einem Gemisch aus gleichen Teilen Aether, Äthanol und Chloroform mit letalen Dosen (ungefähr eine LD80-90; Anzahl der plaque forming units [PFU] siehe Tabelle 1) der untengenannten Viren-Stämme in Form von je 0,05 ml einer Suspension der Viren intranasal infiziert.
(§2) 10 oder 20 von diesen Mäusen werden zum unten angegebenen Zeitpunkt [Tage] bezogen auf den Tag der Infektion einmal (Einzeldosis) die in Tabelle 1 genannten Mengen der Wirksubstanz N-Acetyl- muramyl-L-alanyl-D-isoglutaminyl-L-alanin-2-(1.2-dipalmitoyl-sn-glycero-3-hydroxyphosphoryioxy)-äthylamid-natriumsalz (Verbindung I) in 0,05 bzw. 0,1 ml Phosphat-gepufferter-Salzlösung (PBS) bzw. in 0,2 ml einer 0,05 Gew.-%igen Lösung von Natriumcarboxymethylcellulose in doppelt destilliertem Wasser im Falle von intranasaler, intravenöser bzw. oraler Applikation auf die in Tabelle 1 genannte Art appliziert.
(§3) Die restlichen der obengenannten Mäuse, d. h. 20 oder 30, dienen zur Kontrolle, d. h. sie bleiben entweder unbehandelt oder erhalten ein Placebo.
(§4) Die intranasale Applikation von Verbindung I wird unter leichter Narkose mit einem Gemisch aus gleichen Teilen Diäthyläther, Aethanol und Chloroform durchgeführt.

[1] = system: Herpesvirus hominis 1/TUP; assay: Lethal intranasal virus infection of mice, single dose of active substance, protection; type: in vivo, Mäuse; details: 10 mg/kg, day -7, intranasal infection (Figur 3)
Experimental: as §1, §2, §3, §4

[2] = intranasal, 1 mg/kg, single dose on day '-' (number not given) before infection
[3] = oral, 10 mg, single dose on day +7 after infection

Row | SMILES | Mäuse die Infektion überleben (Influenza A/Texas/1/77; [2]) | Mäuse die Infektion überleben (Influenza A/Texas/1/77; [3]) | Schutzwirkung (Influenza A/Texas/1/77; [2]) | outcome of infection (death of mice) (Influenza A/Texas/1/77; [3]) | Schutzwirkung [1]
1 | CCCCCCCCCCCCCCCC(=O)OC[C@H](COP(=O)(O)OCCNC(=O)[C@H](C)NC(=O)CC[C@@H](NC(=O)[C@H](C)NC(=O)[C@@H](C)O[C@H]1[C@H](O)[C@@H](CO)OC(O)[C@@H]1NC(C)=O)C(N)=O)OC(=O)CCCCCCCCCCCCCCC (stereo partly drawn) [Verbindung I, N-Acetyl-muramyl-L-alanyl-D-isoglutaminyl-L-alanin-2-(1,2-dipalmitoyl-sn-glycero-3-hydroxyphosphoryloxy)-äthylamid] | 90% | 65% |  |  | 
2 | CCCCOC(=O)[C@@H](CCC(N)=O)NC(=O)[C@H](C)NC(=O)[C@@H](C)O[C@H]1[C@H](O)[C@@H](CO)OC(O)[C@@H]1NC(C)=O (stereo partly drawn) [Verbindung II, N-Acetyl-muramyl-L-alanyl-D-glutamin-n-butylester] |  |  | keinerlei Schutzwirkung | sämtliche Mäuse an der Infektion mit Influenza A/Texas/1/77 sterben | Keinerlei Schutzwirkung

— patent EP0102319B1, “Prophylactic and therapeutic use of muramyl peptides and their analogues against viral infections” (CIBA-GEIGY AG, priority 1982, dated 1984)
